Results as given in patent US10988474B2, “Compounds acting at multiple prostaglandin receptors giving a general anti-inflammatory response” (ALLERGAN, INC., priority 2011, dated 2021).

Assays:
Type in all cases: cell-based
[1] = target: T1, human prostanoid TP receptor (Homo sapiens, UniProt P21731); test: FLIPR Ca2+ signaling PG antagonist assay, TP stable cell line; details: HEK-293 EBNA cells, human recombinant TP, no exogenous G-protein; standard agonist U-46619
T1 construct: expressed in transfected cells
T1 sequence (P21731 1-343): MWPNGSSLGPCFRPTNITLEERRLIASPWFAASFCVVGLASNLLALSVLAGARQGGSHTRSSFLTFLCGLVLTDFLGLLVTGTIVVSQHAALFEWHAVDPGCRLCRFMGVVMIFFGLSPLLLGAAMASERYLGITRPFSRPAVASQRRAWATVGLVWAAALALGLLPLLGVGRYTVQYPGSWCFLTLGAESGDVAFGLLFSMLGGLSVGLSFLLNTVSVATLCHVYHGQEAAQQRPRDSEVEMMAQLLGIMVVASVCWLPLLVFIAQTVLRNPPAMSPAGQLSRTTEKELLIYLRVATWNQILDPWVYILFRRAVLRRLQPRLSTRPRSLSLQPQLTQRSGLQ
Method: (§1) The above compounds were tested for PG antagonist activity as follows using human recombinant prostanoid receptor (DP1, EP1-4, FP, IP and TP) stable cell lines: In order to measure the response of Gs and Gi coupled prostanoid receptors as a Ca^2+ signal, chimeric G protein cDNAs were used. Stable cell lines over-expressing human prostanoid DP1, EP1-4, FP, IP, and TP receptors were established as follows:
(§2) Briefly, human prostanoid DP1, EP2, and EP4 receptor cDNAs were co-transfected with chimeric Gqs cDNA containing a haemagglutanin (HA) epitope; human prostanoid EP3 receptors were co-transfected with chimeric Gqi-HA; human EP1, FP, IP, and TP receptor cDNAs were expressed with no exogenous G-proteins. Gqs and Gqi chimeric cDNAs (Molecular Devices, Sunnyvale, Calif., U.S.A.), as well as cDNAs of prostanoid receptors, were cloned into a pCEP4 vector with a hygromycin B selection marker. Transfection into HEK-293 EBNA (Epstein-Barr virus nuclear antigen) cells was achieved by the FuGENE 6 transfection Reagent (Roche Applied Science, Indianapolis, Ind., USA). Stable transfectants were selected according to hygromycin resistance. Because Gqs and Gqi contained an HA epitope, G-protein expression was detected by Western blotting analysis using anti-mouse HA monoclonal antibody and horseradish peroxidase (HRP)-conjugated secondary antibody, while functional expression of prostanoid receptors was detected by FLIPR screening (Matias et al., 2004). These stable cell lines were validated using previously published antagonists at 10 μM against serial dilutions of standard agonists by FLIPR functional assays for Ca^2+ Signaling (as described below).
(§3) Ca^2+ signaling studies were performed using a FLIPR TETRA system (Molecular Devices, Sunnyvale, Calif., USA) in the 384-format. This is a high-throughput instrument for cell-based assays to monitor Ca^2+ signaling associated with GPCRs and ion channels. Cells were seeded at a density of 5×10^4 cells/well in BioCoat poly-D-lysine coated, black wall, clear bottom 384-well plates (BD Biosciences, Franklin lakes, NJ, USA) and allowed to attach overnight in an incubator at 37° C. The cells were then washed twice with HBSS-HEPES buffer (Hanks' balanced salt solution without bicarbonate and phenol red, 20 mM HEPES, pH 7.4) using an ELx405 Select CW Microplate Washer (BioTek, Winooski, Vt., USA). After 60 min of dye-loading in the dark using the Ca^2+-sensitive dye Fluo-4AM (Invitrogen, Carlsbad, Calif., USA), at a final concentration of 2×10^−6M, the plates were washed 4 times with HBSS-HEPES buffer to remove excess dye and leaving 50 μl of buffer in each well. The plates were then placed in the FLIPR TETRA instrument and allowed to equilibrate at 37° C. Compounds were added in a 25 μl volume to each well to give final concentrations of 0.1 μM, 0.3 μM, 1 μM, 3 μM, 10 μM, and 30 μM; or 0.067 μM, 0.1 μM, 0.2 μM, 0.3 μM, 0.67 μM, and 1 μM for cells over-expressing TP receptors. After 4.5 minutes, a 7-point serial dilution of the standard agonist for the corresponding receptor, in a 25 μl volume was injected at the final concentrations from 10^−11M to 10^−5M in 10-fold serial dilution increments for cells expressing human recombinant DP1, EP1, EP2, EP3, EP4, FP, and IP receptors. The dose range for the standard agonist for human recombinant TP receptors was from 10^−12M to 10^−6M. HBSS-HEPES buffer was used as the negative control for the standard agonists. Cells were excited with LED (light emitting diode) excitation at 470-495 nm and emission was measured through an emission filter at 515-575 nm. Assay plates were read for 3.5 minutes using the FLIPR^TETRA. The peak increase in fluorescence intensity was recorded for each well. On each plate, negative controls, dose response of positive controls, and co-treatments of antagonist-agonist for each dose were in triplicates. Standard agonists were as follows: DP=BW 245C, EP1-EP4=PGE2, FP=17-phenyl-PGF2α, IP=Cicaprost, and TP=U-46619. […]

[2] = target: T2, human prostanoid FP receptor (Homo sapiens, UniProt P43088); test: FLIPR Ca2+ signaling PG antagonist assay, FP stable cell line; details: HEK-293 EBNA cells, human recombinant FP, no exogenous G-protein; standard agonist 17-phenyl-PGF2α
T2 construct: expressed in transfected cells
T2 sequence (P43088 whole entry): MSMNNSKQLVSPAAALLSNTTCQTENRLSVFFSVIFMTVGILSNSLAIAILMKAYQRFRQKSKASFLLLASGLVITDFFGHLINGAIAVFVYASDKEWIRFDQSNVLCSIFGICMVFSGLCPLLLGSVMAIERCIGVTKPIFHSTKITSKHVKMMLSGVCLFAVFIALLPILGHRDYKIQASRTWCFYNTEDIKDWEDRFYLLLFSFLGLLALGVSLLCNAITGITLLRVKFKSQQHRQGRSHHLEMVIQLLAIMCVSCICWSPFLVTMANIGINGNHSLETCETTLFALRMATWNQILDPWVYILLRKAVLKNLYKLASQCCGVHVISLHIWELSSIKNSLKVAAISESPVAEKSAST
Method: as §1, §2, §3

[3] = target: T3, human prostanoid EP1 receptor (Homo sapiens, UniProt P34995); test: FLIPR Ca2+ signaling PG antagonist assay, EP1 stable cell line; details: HEK-293 EBNA cells, human recombinant EP1, no exogenous G-protein; standard agonist PGE2
T3 construct: expressed in transfected cells
T3 sequence (P34995 1-402): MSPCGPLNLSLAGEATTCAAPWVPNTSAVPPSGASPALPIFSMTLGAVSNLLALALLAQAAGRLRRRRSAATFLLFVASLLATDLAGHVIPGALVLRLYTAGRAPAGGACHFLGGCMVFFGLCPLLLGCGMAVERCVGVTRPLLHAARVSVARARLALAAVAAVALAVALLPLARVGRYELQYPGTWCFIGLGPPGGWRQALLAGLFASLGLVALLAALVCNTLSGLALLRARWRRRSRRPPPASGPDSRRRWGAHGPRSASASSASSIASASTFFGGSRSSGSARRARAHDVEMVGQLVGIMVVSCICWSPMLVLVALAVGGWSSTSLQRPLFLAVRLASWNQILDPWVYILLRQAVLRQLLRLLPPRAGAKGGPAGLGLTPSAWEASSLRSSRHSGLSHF
Method: as §1, §2, §3

[4] = target: T4, human prostanoid EP2 receptor (Homo sapiens, UniProt P43116); test: FLIPR Ca2+ signaling PG antagonist assay, EP2 stable cell line; details: HEK-293 EBNA cells, human recombinant EP2 with chimeric Gqs; standard agonist PGE2
T4 construct: expressed in transfected cells
T4 sequence (P43116 whole entry): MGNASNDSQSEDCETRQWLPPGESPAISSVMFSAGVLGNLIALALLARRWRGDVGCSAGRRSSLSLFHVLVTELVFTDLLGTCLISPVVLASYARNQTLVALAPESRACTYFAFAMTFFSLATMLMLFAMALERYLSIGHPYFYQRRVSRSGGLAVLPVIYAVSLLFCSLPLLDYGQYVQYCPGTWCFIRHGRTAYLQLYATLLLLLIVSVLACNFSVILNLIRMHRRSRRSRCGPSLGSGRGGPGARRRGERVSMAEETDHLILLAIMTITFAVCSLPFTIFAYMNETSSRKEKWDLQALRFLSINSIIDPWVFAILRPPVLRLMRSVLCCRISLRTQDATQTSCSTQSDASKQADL
Method: as §1, §2, §3

SMILES: O=C(O)c1cccc2c1cnn2Cc1cc(Cl)ccc1OCC1CC1 [Example 34, 1-(5-Chloro-2-Cyclopropylmethoxy-Benzyl)-1H-Indazole-4-Carboxylic Acid]
- Kb [1]: 0.1 µM
- Kb [2]: 3.2 µM
- Kb [3]: 0.07 µM
- Kb [4]: ≥ 10 µM

SMILES: O=C(O)c1ccc2c(cnn2Cc2cc(Br)ccc2OCC2CCCC2)c1 [Example 14, 1-(5-Bromo-2-Cyclopentylmethoxy-Benzyl)-1H-Indazole-5-Carboxylic Acid]
- Kb [1]: 0.6 µM
- Kb [2]: 0.03 µM
- Kb [3]: 0.02 µM
- Kb [4]: 0.4 µM

SMILES: CC(C)COc1c(F)cc(Cl)cc1Cn1ncc2cc(C(=O)O)ccc21 [Example 47, 1-(5-Chloro-3-Fluoro-2-Isobutoxy-Benzyl)-1H-Indazole-5-Carboxylic Acid]
- Kb [1]: ≥ 10 µM
- Kb [2]: 4.7 µM
- Kb [3]: 2 µM
- Kb [4]: ≥ 10 µM

SMILES: O=C(O)c1ccc2c(cnn2Cc2cc(Cl)ccc2OCC2CC2)c1 [Example 11, 1-(5-Chloro-2-Cyclopropylmethoxy-Benzyl)-1H-Indazole-5-Carboxylic Acid]
- Kb [1]: 0.12 µM
- Kb [2]: 0.12 µM
- Kb [3]: 0.12 µM
- Kb [4]: 2 µM

SMILES: CC(C)COc1ccc(Cl)cc1Cn1cc2cc(C(=O)O)ccc2n1 [Example 16, 2-(5-Chloro-2-Isobutoxy-Benzyl)-2H-Indazole-5-Carboxylic Acid]
- Kb [1]: 0.4 µM
- Kb [2]: 3 µM
- Kb [3]: 0.09 µM
- Kb [4]: ≥ 10 µM

SMILES: CC(C)COc1ccc(Br)cc1Cn1cc2cc(C(=O)O)ccc2n1 [Example 17, 2-(5-Bromo-2-Isobutoxy-Benzyl)-2H-Indazole-5-Carboxylic Acid]
- Kb [1]: 3.3 µM
- Kb [2]: 2.3 µM
- Kb [3]: 0.04 µM
- Kb [4]: ≥ 10 µM

SMILES: CCC(CC)COc1ccc(Br)cc1Cn1cnc2cc(C(=O)O)ccc21 [Example 78, 1-[5-Bromo-2-(2-Ethyl-Butoxy)-Benzyl]-1H-Benzoimidazole-5-Carboxylic Acid]
- Kb [1]: 0.016 µM
- Kb [2]: 0.8 µM
- Kb [3]: 0.145 µM
- Kb [4]: ≥ 10 µM

SMILES: O=C(O)c1ccc2c(cnn2Cc2cc(Cl)ccc2OCC2CCCC2)c1 [Example 10, 1-(5-Chloro-2-Cyclopentylmethoxy-Benzyl)-1H-Indazole-5-Carboxylic Acid]
- Kb [1]: 0.02 µM
- Kb [2]: 0.03 µM
- Kb [3]: 0.05 µM
- Kb [4]: 0.5 µM

SMILES: O=C(O)c1ccc2c(cnn2Cc2cc(Br)ccc2OCc2ccccc2)c1 [Example 12, 1-(2-Benzyloxy-5-Bromo-Benzyl)-1H-Indazole-5-Carboxylic Acid]
- Kb [1]: 0.044 µM
- Kb [2]: 0.12 µM
- Kb [3]: 0.36 µM
- Kb [4]: 7.9 µM

SMILES: CC(C)COc1ccc(O)cc1Cn1ncc2cc(C(=O)O)ccc21 [Example 54]
- Kb [1]: 0.64 µM
- Kb [2]: 1.1 µM
- Kb [3]: 1.3 µM
- Kb [4]: ≥ 10 µM

SMILES: CC(C)COc1ccc(Br)cc1Cn1ccc2cc(C(=O)O)ccc21 [Example 67, 1-(5-Bromo-2-Isobutoxy-Benzyl)-1H-Indole-5-Carboxylic Acid]
- Kb [1]: 0.16 µM
- Kb [2]: 0.1 µM
- Kb [3]: 0.06 µM
- Kb [4]: ≥ 10 µM

SMILES: CC(C)COc1ccc(Cl)cc1Cn1ncc2c(C(=O)O)cccc21 [Example 36, 1-(5-Chloro-2-Isobutoxy-Benzyl)-1H-Indazole-4-Carboxylic Acid]
- Kb [1]: 0.003 µM
- Kb [2]: 0.58 µM
- Kb [3]: 0.06 µM
- Kb [4]: 2.9 µM

SMILES: O=C(O)c1ccc2cn(Cc3cc(Br)ccc3OCC3CCCC3)nc2c1 [Example 45, 2-(5-Bromo-2-Cyclopentylmethoxy-Benzyl)-2H-Indazole-6-Carboxylic Acid]
- Kb [1]: 0.08 µM
- Kb [2]: 1.4 µM
- Kb [3]: 0.023 µM
- Kb [4]: ≥ 10 µM

SMILES: O=C(O)c1ccc2c(cnn2Cc2cc(Cl)ccc2OCc2ccc(Cl)cc2)c1 [Example 9, 1-[5-Chloro-2-(4-Chloro-Benzyloxy)-Benzyl]-1H-Indazole-5-Carboxylic Acid]
- TP (Kb, PG antagonist activity) [1]: PAgonist
- Kb [2]: 0.02 µM
- Kb [3]: 0.09 µM
- Kb [4]: 3.2 µM

SMILES: CC(C)COc1ccc(OC(F)(F)F)cc1Cn1ncc2cc(C(=O)O)ccc21 [Example 20, 1-(2-Isobutoxy-5-Trifluoromethoxy-Benzyl)-1H-Indazole-5-Carboxylic Acid]
- Kb [1]: 0.05 µM
- Kb [2]: 0.013 µM
- Kb [3]: 0.03 µM
- Kb [4]: ≥ 10 µM

SMILES: O=C(O)c1cccc2nn(Cc3cc(Cl)ccc3OCc3ccc(Cl)cc3)cc12 [Example 41, 2-[5-Chloro-2-(4-Chloro-Benzyloxy)-Benzyl]-2H-Indazole-4-Carboxylic Acid]
- Kb [1]: 7.4 µM
- Kb [2]: ≥ 10 µM
- Kb [3]: ≥ 10 µM
- Kb [4]: ≥ 10 µM

SMILES: CCC(CC)COc1ccc(Br)cc1Cn1ccc2ccc(C(=O)O)cc21 [Example 70, 1-[5-Bromo-2-(2-Ethyl-Butoxy)-Benzyl]-1H-Indole-6-Carboxylic Acid]
- Kb [1]: 0.32 µM
- Kb [2]: ≥ 10 µM
- Kb [3]: 0.2 µM
- Kb [4]: ≥ 10 µM

SMILES: CC(C)COc1ccc(OC(F)(F)F)cc1Cn1ccc2cc(C(=O)O)ccc21 [Example 71, 1-(2-Isobutoxy-5-Trifluoromethoxy-Benzyl)-1H-Indole-5-Carboxylic Acid]
- Kb [1]: 0.6 µM
- Kb [2]: 0.12 µM
- Kb [3]: 0.1 µM
- Kb [4]: ≥ 10 µM

SMILES: CC(C)COc1ccc(Cl)cc1Cn1ncc2cc(C(=O)O)cnc21 [Example 57, 1-(5-Chloro-2-Isobutoxy-Benzyl)-1H-Pyrazolo[3,4-B]Pyridine-5-Carboxylic Acid]
- Kb [1]: 0.15 µM
- Kb [2]: 0.19 µM
- Kb [3]: 0.027 µM
- Kb [4]: ≥ 10 µM

SMILES: Cc1nn(Cc2cc(C(F)(F)F)ccc2OCC(C)C)c2ccc(C(=O)O)cc12 [Example 25, 1-(2-Isobutoxy-5-Trifluoromethyl-Benzyl)-3-Methyl-1H-Indazole-5-Carboxylic Acid]
- Kb [1]: 0.05 µM
- Kb [2]: 0.18 µM
- Kb [3]: 0.027 µM
- Kb [4]: 9.3 µM
